Experimental data as given in ChEMBL document CHEMBL3616451, “Design and synthesis of 11α-substituted bile acid derivatives as potential anti-tuberculosis agents” (Bioorg Med Chem Lett, 2015).
≈ marks a conversion by molar mass, not a printed value. Calls of active or inactive are those of the source. The calls are words filed in the database; no cut-off is given here.

Tests used:
[1] = tested on: Mycobacterium tuberculosis; assay: Anti-tubercular activity against rifampicin, isoniazid, ethambutol and pyrazinamide-sensitive dormant phage of Mycobacterium tuberculosis H37Ra ATCC 25177 infected in human THP1 cells by neutral red assay; type: functional, organism-based; details: H37Ra ATCC 25177, THP-1
[2] = tested on: Mycobacterium tuberculosis; assay: Anti-tubercular activity against rifampicin, isoniazid, ethambutol and pyrazinamide-sensitive active phage of Mycobacterium tuberculosis H37Ra ATCC 25177 by serial dilution method; type: functional, organism-based
THP-1 = assay: (§1) Cytotoxicity against human THP1 cells after 48 hrs by MTT assay; type: cell-based; details: thp-1, 48 h
[3] = as §1; type: cell-based, THP-1; details: THP-1 cells
Bacillus subtilis = assay: Antibacterial activity against Bacillus subtilis ATCC 23857 assessed as growth inhibition at 30 ug/ml relative to control; type: functional; details: read-out: GI
[4] = tested on: Mycobacterium tuberculosis; assay: Anti-tubercular activity against rifampicin, isoniazid, ethambutol and pyrazinamide-sensitive Mycobacterium tuberculosis H37Ra ATCC 25177 assessed as growth inhibition at 3 ug/ml by XRMA method relative to control; type: functional; details: read-out: GI
Staphylococcus aureus = assay: Antibacterial activity against Staphylococcus aureus ATCC 29213 assessed as growth inhibition at 30 ug/ml relative to control; type: functional
[5] = Cytotoxicity against human PANC1 cells after 48 hrs by MTT assay; type: cell-based, PANC-1
A549 = assay: (§2) Cytotoxicity against human A549 cells after 48 hrs by MTT assay; type: cell-based; details: a549, 48 h
[6] = as §2; type: cell-based; details: A549 cells
[7] = tested on: Mycobacterium tuberculosis; assay: Anti-tubercular activity against rifampicin, isoniazid, ethambutol and pyrazinamide-sensitive Mycobacterium tuberculosis H37Ra ATCC 25177 assessed as growth inhibition at 10 ug/ml by XRMA method relative to control; type: functional; details: read-out: GI
[8] = tested on: Mycobacterium tuberculosis; assay: Anti-tubercular activity against rifampicin, isoniazid, ethambutol and pyrazinamide-sensitive dormant phage of Mycobacterium tuberculosis H37Ra ATCC 25177 by serial dilution method; type: functional, organism-based
[9] = tested on: Mycobacterium tuberculosis; assay: Anti-tubercular activity against rifampicin, isoniazid, ethambutol and pyrazinamide-sensitive active phage of Mycobacterium tuberculosis H37Ra ATCC 25177 infected in human THP1 cells by neutral red assay; type: functional, organism-based; details: H37Ra ATCC 25177, THP-1
Escherichia coli = assay: Antibacterial activity against Escherichia coli […] assessed as growth inhibition at 30 ug/ml relative to control; type: functional
[10] = tested on: Mycobacterium tuberculosis; assay: Anti-tubercular activity against rifampicin, isoniazid, ethambutol and pyrazinamide-sensitive Mycobacterium tuberculosis H37Ra ATCC 25177 assessed as growth inhibition at 30 ug/ml by XRMA method relative to control; type: functional; details: read-out: GI
Pseudomonas fluorescens = assay: Antibacterial activity against Pseudomonas fluorescens ATCC 13525 assessed as growth inhibition at 30 ug/ml relative to control; type: functional

CCCCCCc1cn([C@@H]2C(=O)[C@]3(C)[C@@H]([C@H](C)CCC(=O)OC)CC[C@H]3[C@H]3[C@H]2[C@@]2(C)CC[C@@H](OC(C)=O)C[C@H]2C[C@H]3OC(C)=O)nn1
IC50 [1]: 0.13 µg/mL (≈ 0.198 µM) | IC90 [1]: 1.55 µg/mL (≈ 2.36 µM) | IC50 [2]: 0.64 µg/mL (≈ 0.976 µM) | IC90 [2]: 2.63 µg/mL (≈ 4.01 µM) | GI90 (THP-1): > 100 µg/mL | GI50 at 48 h [3]: > 100 µg/mL | inhibition of growth at 30 µg/mL (Bacillus subtilis): 22.9% | inhibition of growth at 3 µg/mL [4]: 91% | growth inhibition (GI) (Staphylococcus aureus): inactive | GI50 at 48 h ([5]; PANC-1 cells): > 100 µg/mL | GI90 ([5]; panc-1, 48 h): > 100 µg/mL | GI90 (A549): > 100 µg/mL | GI50 at 48 h [6]: > 100 µg/mL | inhibition of growth at 10 µg/mL [7]: 96% | IC50 [8]: 0.17 µg/mL (≈ 0.259 µM) | IC90 [8]: 2.43 µg/mL (≈ 3.7 µM) | IC50 [9]: 0.25 µg/mL (≈ 0.381 µM) | IC90 [9]: 2.8 µg/mL (≈ 4.27 µM) | growth inhibition (GI) (Escherichia coli): inactive | inhibition of growth at 30 µg/mL [10]: 97% | growth inhibition (GI) (Pseudomonas fluorescens): inactive
